Like-named read-outs stand apart in the source and are kept apart here. No end group written: not given here.
What was measured:
MDR-E. coli (LZ-7) = assay type: cell-based, Escherichia coli
Method: (§1) Two MDR bacteria, MDR-E. coli (LZ-7, drug resistance: compound sulfamethoxazole, ampicillin, gentamicin, ciprofloxacin, levofloxacin) and MDR-A. baumannii (AB-29, drug resistance: 11 kinds of antibiotics including cephalosporins), along with three pathogenic bacteria, E. coli (ATCC 25922), S. aureus (ATCC 6538), and A. baumannii (309-14) were included in the study. A single colony of each bacterium was cultured in Luria-Bertani (LB) medium at 37°C and 180 rpm for 12–16 h until the logarithmic growth phase for use.
(§2) The MIC of the peptides against a range of bacteria was determined using the microbroth dilution method with slight modifications ([62]). In brief, the bacteria mentioned above were dispersed in the LB (10^5 CFU mL^−1) and were mixed with gradient concentrations (0.25 μM–16 μM) of SAMPs in the 96-well plate (n = 3). After incubation at 37°C for 16–18 h, the absorbance at 600 nm was measured using a microplate reader (Thermo Fisher Scientific, Multiskan MK3, China). The lowest peptide concentration with no absorbance increase was defined as the MICs. The bacterial solution in the 96-well plate was then transferred to solid LB medium to culture single colonies (n = 3), and the lowest peptide concentration at which almost no colonies survive (less than 0.01%) was defined as the MBCs.

E. coli (ATCC 25922) = assay type: cell-based, Escherichia coli
Method: as §1, §2

S. aureus = assay type: cell-based, Staphylococcus aureus; conditions: 12 h
Method: as §2
(§3) Based on previous methods, stability was analyzed by monitoring the changes in the antimicrobial efficacy of SAMPs in the presence of salts and serum ([37], [38]). The SAMPs underwent incubation with physiological salts (150 mM NaCl, 4.5 mM KCl) or serum at 37°C for 12 h, followed by measurement of their MICs using the previously outlined method (n = 3).

S. aureus (ATCC 6538) = assay type: cell-based, Staphylococcus aureus
Method: as §1, §2

E. coli = assay type: cell-based, Escherichia coli; conditions: 12 h
Method: as §2, §3

A. baumannii (309-14) = assay type: cell-based, Acinetobacter baumannii
Method: as §1, §2

MDR-A. baumannii (AB-29) = assay type: cell-based, Acinetobacter baumannii
Method: as §1, §2

S. aureus and E. coli = assay: Drug resistance assay (serial passage); assay type: cell-based; conditions: Colistin E 4 μg mL−1, 30 days
Method: The evaluation of drug resistance in SAMPs was performed through MIC value detection ([74]). Resistance was defined as a greater than fourfold increase in the MIC from its initial value. S. aureus and E. coli grown in LB medium supplemented with 0.5 × MIC of each SAMP were repeated for 30 days, followed by determination of MIC values using the same methodology outlined above (n = 3). Meanwhile, Colistin E (4 μg mL^-1) was used as the control group to induce bacterial resistance in the same way.

[1] = tested on: S. aureus, E. coli, A. baumannii, MDR-E. coli, MDR-A. baumannii; assay type: cell-based
Method: as §1, §2

Substance | MBC (MDR-E. coli (LZ-7); MDR- (LZ-7)) | MIC (MDR-E. coli (LZ-7); MDR- (LZ-7)) | MBC (E. coli (ATCC 25922); ATCC 25922) | MIC (E. coli (ATCC 25922); ATCC 25922) | MIC after treatment, KCl (S. aureus) | MIC after treatment, NaCl (S. aureus) | MIC after treatment, Serum (S. aureus) | MBC (S. aureus (ATCC 6538); ATCC 6538) | MIC (S. aureus (ATCC 6538); ATCC 6538) | MIC after treatment, KCl (E. coli) | MIC after treatment, NaCl (E. coli) | MIC after treatment, Serum (E. coli) | MBC (A. baumannii (309-14); 309-14) | MIC (A. baumannii (309-14); 309-14) | MBC (MDR-A. baumannii (AB-29); MDR- (AB-29)) | MIC (MDR-A. baumannii (AB-29); MDR- (AB-29)) | also measured
FLKLRLWKKLLWKLK-NH2 [KK] | 8 µM | 2 µM | 4 µM | 0.5 µM | 0.5 µM | 1 µM | 0.5 µM | 2 µM | 0.5 µM | 0.5 µM | 1 µM | 0.5 µM | 1 µM | 0.5 µM | 1 µM | 0.5 µM | 
Colistin E [reference compound] |  |  |  |  |  |  |  |  |  |  |  |  |  |  |  |  | MIC (MDR-E. coli (LZ-7); MDR-E. coli, microbroth dilution in LB, 10^5 CFU mL−1, 37°C, 16–18 h, absorbance 600 nm, n = 3): >256 µM; MIC (E. coli (ATCC 25922); E. coli, microbroth dilution in LB, 10^5 CFU mL−1, 37°C, 16–18 h, absorbance 600 nm, n = 3): 256 µM; MIC (S. aureus (ATCC 6538); S. aureus, microbroth dilution in LB, 10^5 CFU mL−1, 37°C, 16–18 h, absorbance 600 nm, n = 3): >256 µM; MIC (A. baumannii (309-14); A. baumannii, microbroth dilution in LB, 10^5 CFU mL−1, 37°C, 16–18 h, absorbance 600 nm, n = 3): 32 µM; MIC (MDR-A. baumannii (AB-29); MDR-A. baumannii, microbroth dilution in LB, 10^5 CFU mL−1, 37°C, 16–18 h, absorbance 600 nm, n = 3): 128 µM; antimicrobial activity after resistance induction (S. aureus and E. coli): significant decrease in the antimicrobial activity
FLKLRLWGRLLWKLK-NH2 [GR] | 16 µM | 16 µM | 8 µM | 2 µM | 1 µM | 1 µM | 1 µM | 2 µM | 1 µM | 2 µM | 2 µM | 2 µM | 2 µM | 2 µM | 2 µM | 0.5 µM | 
FLALALIQEAIAKLK-NH2 [FA, Kassporin-KS1, reference compound] | >128 µM | >32 µM | >128 µM | >32 µM |  |  |  | >128 µM | >32 µM |  |  |  | >128 µM | >32 µM | >128 µM | >32 µM | MIC, three prevalent pathogenic bacteria [1]: > 32 µM
FLKLRLWRKLLWKLK-NH2 [RK] | 4 µM | 2 µM | 1 µM | 0.25 µM | 0.25 µM | 0.25 µM | 0.25 µM | 1 µM | 0.25 µM | 0.25 µM | 0.25 µM | 0.25 µM | 0.5 µM | 0.5 µM | 0.5 µM | 0.25 µM | MIC, common pathogenic bacteria and MDR bacteria [1]: 0.25 to 2 µM
FLKLRLWKRLLWKLK-NH2 [KR] | 4 µM | 1 µM | 0.5 µM | 0.25 µM | 0.25 µM | 0.25 µM | 0.25 µM | 0.5 µM | 0.25 µM | 0.25 µM | 0.25 µM | 0.25 µM | 0.25 µM | 0.25 µM | 0.25 µM | 0.25 µM | MIC, common pathogenic bacteria and MDR bacteria [1]: 0.25 to 2 µM
FLKLRLWGKLLWKLK-NH2 [GK] | 16 µM | 16 µM | 8 µM | 2 µM | 1 µM | 1 µM | 1 µM | 2 µM | 1 µM | 2 µM | 2 µM | 2 µM | 4 µM | 2 µM | 4 µM | 1 µM | 
FLKLRLWRRLLWKLK-NH2 [RR] | 8 µM | 2 µM | 2 µM | 0.5 µM | 0.5 µM | 0.5 µM | 0.5 µM | 2 µM | 0.5 µM | 0.5 µM | 1 µM | 0.5 µM | 1 µM | 1 µM | 2 µM | 0.5 µM | 

From publication PMC12888869, “A short antimicrobial peptides family demonstrates efficacy to infection via a multimodal mechanism of action” (Antimicrobial Agents and Chemotherapy, 2025)
